Reference: patent US12564631B2, “Phytosphingosine derivatives as adjuvants in immune stimulation” (Helmholtz-Zentrum für Infektionsforschung GmbH, priority 2020, dated 2026)

Key:
[1] = test system: Antigen-specific multifunctional CD4+ T cells; assay: Antigen-specific multifunctional T cells (intracellular cytokine staining, flow cytometry) in spleen cells of immunized mice; format: in vivo, BALB/c mice; conditions: adjuvanted Ovalbumin, CD4+ and CD8+ T cell populations
Method: FIG. 8: Antigen-specific multifunctional CD4+ T cells. (A) Groups of 3 BALB/c mice were immunized intramuscularly with PBS (control) or with three doses (14 days apart) of Ovalbumin (30 μg), alone or adjuvanted with c-di-AMP or aßGalCerMPEG or IPB 2033-2044 (15 μg). At 14 days after the second immunization, spleen cells were harvested, restimulated with Ovalbumin, intracellularly stained for double positive Th cytokines (IFN-γ, IL-2, TNF-α, IL-4 and IL-17), and analyzed by flow cytometry. […] At 14 days after the second immunization, spleen cells were harvested, restimulated with Ovalbumin, intracellularly stained for triple positive Th cytokines (IFN-γ, IL-2, TNF-α, IL-4 and IL-17), and analyzed by flow cytometry.
In order to characterize more accurately the cellular immune response, the production of intracellular cytokines was measured in CD4+ and CD8+ T cells. […]
Therefore, mice were immunized to assess the in vivo performance of CDA in an active vaccination setting. To assess vaccination effectivity, the frequencies of cytokine producers among the CD4+ and CD8+ T cell populations were evaluated by intracellular cytokine staining and flow cytometry. […] Thus, the frequency of T cells producing single cytokines or combinations (positive events/million) was analyzed by flow cytometry.

[2] = Ebensen et al J. Immunol. 179 (2007) 2065; cited from earlier work

| Structure (SMILES) | frequency of triple, double and single cytokine producers among T cells [1] | solubility [2] |
| --- | --- | --- |
| Nc1ncnc2c1ncn2[C@@H]1O[C@@H]2COP(=O)(O)O[C@H]3[C@@H](O)[C@H](n4cnc5c(N)ncnc54)O[C@@H]3COP(=O)(O)O[C@H]2[C@H]1O [CDA, c-di-AMP] | increased the frequency of triple, double and single cytokine producers |  |
| CCCCCCCCCCCCCCCCCCCCCCCCCC(=O)N[C@@H](CO[C@H]1O[C@H](CO)[C@H](O)[C@H](O)[C@H]1O)[C@H](O)[C@H](O)CCCCCCCCCCCCCC [KRN7000] |  | low solubility |
